Tests used:
[1] = tested on: ZO-1; assay: Integrity of conjunctival epithelium after conjunctival allergen challenge: ZO-1 expression (confocal microscopy); format: in vivo, mice
Description: (§1) To investigate the ability of alcaftadine to maintain the integrity of conjunctival epithelium, changes in the expression of the tight junction proteins ZO-1 and E-cadherin (an induction for E-cadherin and qualitative change-from focal to diffuse for ZO-1) were evaluated following specific conjunctival allergen challenge. These changes are associated with an increased permeability of the conjunctival and other epithelial tissues. This in vivo experiment examined what effect alcaftadine (topical administration 1 and 2 hours pre-challenge) had on the modulation of these proteins.
(§2) Mice were sensitized with short ragweed (SRW) in aluminum hydroxide via intraperitoneal administration (Day 0, 7, and 15) and eye drop instillation (Day 8 and 15). On Day 20, mice were further sensitized with eye drops containing only SRW. On Day 27, the mice were treated topically with either 5 μL alcaftadine or vehicle at 1 and 2 hours prior to challenge. SRW was instilled topically to both eyes. The expression of these proteins in naive eyes were also monitored. Changes in the expression of the tight junction proteins ZO-1 and E-cadherin were observed 1-hour post conjunctival allergen challenge with SRW. The proteins were detected using FITC-conjugated monoclonal antibodies specific for ZO-1 and E-cadherin and were visualized by confocal microscopy (Ziess). […]

[2] = Chemical stability of alcaftadine solution in non-sterilized or gamma irradiated LDPE bottles and glass vials (HPLC); format: physicochemical; conditions: Glass Vials; 5° C.; 6 days
[3] = tested on: E-cadherin; assay: Integrity of conjunctival epithelium after conjunctival allergen challenge: E-cadherin expression (confocal microscopy); format: in vivo, mice
Description: as §1, §2

[4] = biological target: T1, human histamine H4 receptor (Homo sapiens, UniProt Q9H3N8); assay: [3H]histamine competition binding to membranes of SK-N-MC cells transfected with human H4 receptor
T1 construct: express a reporter gene construct and the human H4 receptor full-coding region; expressed in transfected cells; host or cells: SK-N-MC cells with a CRE-beta-galactosidase reporter

[5] = tested on: guinea pigs systemically sensitized to rabbit skin squames and topically challenged with rabbit allergens; assay: Anti-allergic activity against acute-phase allergic conjunctivitis (edema and erythema) in sensitized guinea pigs; format: in vivo, guinea pig
Description: The effect of alcaftadine against acute-phase reactions of allergic conjunctivitis (edema and erythema) was compared to the effect of other known anti-allergens in guinea pigs that were systemically sensitized to rabbit skin squames and topically challenged 17 days later with rabbit allergens.
Anesthetized male albino guinea pigs (Dunkin-Hartley) weighing about 230 to 250 g were injected intramuscularly at the left quadriceps with 50 μl of purified rabbit allergens. The rabbit allergens consisted of Al(OH)3-adsorbed rabbit squames (Halab, Brussels, Belgium), which had been homogenized and washed clean of preservative (0.5% (V/V) phenol) with sterile physiologic saline.
Alcaftadine was […] administered to each eye in dosages ranging from 0.005 mg/kg to 1.0 mg/kg at 24 hours and 1 hour before challenge. Other test compounds included oxatomide, ketotifen, astemizole, cetirizine, loratadine and terfenadine, administered at dosages of 0.1 mg/kg and 1.0 mg/kg.
At day 17 post sensitization the left eye was challenged by instilling 25 μl of 100% normal rabbit serum. At the same time as the allergen challenge, the right eye was instilled with 25 μl of 1.5 mg/ml histamine dihydrochloride (98%, Sigma) dissolved in deionised, Millipore-filtered water.
Thirty minutes after challenge, edema and erythema were assessed in the tarsal and bulbar conjunctiva of both eyes and scored as absent (0), weak (1), moderate (2), severe (3), or very severe (4) by a trained technician.

[6] = tested on: SWR/J mice sensitized with short ragweed allergen; assay: Topical alcaftadine in murine model of active anaphylaxis (allergic conjunctivitis, short ragweed challenge); format: in vivo, mouse; conditions: alcaftadine 0.0625% ophthalmic solution, 15 minutes after allergen challenge
Description: Male SWR/J mice (The Jackson Laboratory, Bar Harbor, Me.), aged 5-7 weeks and weighing between 12.55 and 17.73 grams, were sensitized with a 100 μl dose of a suspension of 50 μg short ragweed allergen (Greer Labs, Inc., Lenoir, N.C.) and 1 mg of aluminum hydroxide (Fisher Scientific, Pittsburgh, Pa.) by intraperitoneal injection at two weeks and prior to treatment and challenge. […] The mice were then dosed topically in the eye with an alcaftadine 0.0625% ophthalmic solution, positive control (ophthalmic solution comprising combination of ketotifen 0.05% and pheniramine 0.5%), or placebo prior to an ocular challenge with 1.5 mg short ragweed allergen in phosphate buffered saline. Fifteen (15) minutes after allergen challenge, mice were evaluated for clinical signs of allergic conjunctivitis by scoring for conjunctival redness, chemosis, tearing, and lid edema. Severity of clinical signs was scored by a trained technician using a standardized 0-2 scale.

[7] = Systemic (plasma) levels of alcaftadine in patients; format: in vivo, human; conditions: for Mean Cmax: plasma, 0.25% ophthalmic solution bilaterally
Description: Patients were bilaterally dosed with 0.25% ophthalmic solutions of alcaftadine for seven days. The plasma levels of those patients was assessed pre-dose, and 0.25, 0.5, 1, 1.5, 2, 3, 4, 6, 8, 12, and 18 hour post medication instillation on days one and seven. Plasma concentrations of Alcaftadine reached Cmax rapidly and declined to below the lower limit of quantification (0.01 ng/mL) by 3 hours post dosing.

[8] = tested on: adult volunteers with a history of allergic conjunctivitis; assay: Conjunctival Allergen Challenge (CAC) in adult volunteers; format: in vivo, human
Description: The anti-allergic effect of a single dose of each of the three concentrations of alcaftadine ophthalmic solutions from Example 1 was assessed in a Conjunctival Allergen Challenge (“CAC”) performed on adult volunteers with a history of allergic conjunctivitis. Subjects were selected after two visits to confirm reactivity to the allergen challenge. […] Subjects were then challenged with allergen by instilling reconstituted commercially available allergen into each eye on two separate visits 16 hours and 15 minutes after the bilateral instillation of alcaftadine, PATANOL® olopatadine hydrochloride ophthalmic solution 0.1% (Alcon, Inc., Fort Worth, Tex.) or vehicle, and the clinical response assessed.
Assessments were made at 7, 15 and 20 minutes post challenge based on investigator evaluations of redness using a 5 point scale.
Nasal symptoms of sneezing, rhinorrhea, pruritis (nasal and ear/palate) and nasal congestion were assessed by subjects using standardized scales.

[9] = 5 μL topical at 1 and 2 hours prior to challenge, 1-hour post challenge
[10] = following specific conjunctival allergen challenge
[11] = administered 16 hours prior to challenge

Alcaftadine [2]: 2.52 mg/mL
Oxide [2]: 0.008%
Ki ([4]; average of two runs, 10 nM [3H]histamine, Cheng and Prusoff): 2900 nM
pKi ([4]; compared with pA2): 5.5
maximum plasma concentrations ([7]; all subjects): less than 0.12 ng/mL
Mean Cmax ([7]; Day 1): 0.051 ng/mL
Mean Cmax ([7]; Day 7): 0.060 ng/mL
time by which plasma concentrations declined to below the lower limit of quantification ([7]; post dosing, lower limit of quantification 0.01 ng/mL): ≤ 3 h
SMILES: CN1CCC(=C2c3ccccc3CCn3c(C=O)cnc32)CC1 [Alcaftadine, 6,11-dihydro-11-(1-methyl-4-piperidinylidene)-5H-imidazo[2,1-b][3]benzazepine-3-carboxaldehyde]
ZO-1 staining, alcaftadine treatment versus naive (negative control) [1, 9]: no or minimal difference
integrity of conjunctival epithelial tight junctions (focal ZO-1 expression) [1, 10]: maintains the integrity of conjunctival epithelial tight junctions
E-cadherin staining, alcaftadine treatment versus naive (negative control) [3, 9]: no or minimal difference
induction of E-cadherin expression [3, 10]: inhibits the induction of E-cadherin expression
dose from which acute allergic symptoms were significantly alleviated ([5]; dosed 24 hours and 1 hour before challenge, edema and erythema scored 30 minutes after challenge): 0.1 mg/kg
potency compared with astemizole, cetirizine and loratadine ([5]; on an equivalent mg/kg basis): significantly more potent
potency compared with oxatomide, ketotifen and terfenadine ([5]; on an equivalent mg/kg basis): more potent
preventing tearing [6]: as effective as the positive control and more effective than placebo
preventing itching, redness, chemosis and lid edema ([6]; positive control ketotifen 0.05% and pheniramine 0.5%): more effective than the positive control
itching scores versus vehicle or PATANOL ([8]; 0.25% treatment group, challenged 15 minutes post-treatment): lower itching scores than vehicle or PATANOL®
conjunctival redness scores versus vehicle or PATANOL ([8]; 0.25% treatment group, challenged at 15 minutes post-treatment): lower scores than vehicle or PATANOL®
inhibition of conjunctival redness [8, 11]: dose-related inhibition of conjunctival redness
inhibition of ocular itching [8, 11]: dose-related inhibition of ocular itching
mean itching scores versus vehicle or PATANOL ([8]; all concentrations, 16 hours prior to challenge, 3, 5 and 7 minutes post-challenge, 5 point scale): lower mean itching scores
mean conjunctival redness scores ([8]; all concentrations, 16 hours prior to challenge, 7, 15 and 20 minutes post challenge, 5 point scale): various degrees of reduction in mean conjunctival redness scores at most assessment times
relief of nasal congestion and rhinorrhea ([8]; all concentrations, various time points): some degree of relief
effect on sneezing ([8]; baseline sneezing incidence likely too low): No effect on sneezing was demonstrated
inhibition of ocular itching ([8]; challenged 15 minutes post-treatment): dose-related inhibition of ocular itching as compared to placebo
reduction of rhinorrhea, nasal congestion, and pruritis of the palate/ear ([8]; majority of timepoints at both onset and duration visits): significant reduction
